How the values were obtained:
Format in all cases: in vivo
Apera spica-venti = test: Test Example 4: herbicidal effect by soil treatment (symbol L); conditions: application herbicide amount 320 g/ha
In short: (§1)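 Seeds were sown in sterilized diluvial soil, covered with about 1.5 cm of soil, and the soil surface was sprayed with a water-diluted emulsion of the compound at a predetermined rate. Plants grew in a greenhouse at 25° C. to 30° C.; effects were scored visually 3 weeks after application.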

Amaranthus retroflexus [1] = test: Test Example 4: herbicidal effect by soil treatment (symbol N); conditions: application herbicide amount 320 g/ha
In short: as §1

Monochoria vaginalis [2] = test: Test Example 2: herbicidal activity, application during weed generation in submerged conditions (symbol C); conditions: Table 23; application herbicide amount 320 g/ha; grade 0-5 by criteria of Test Example 1
In short: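 Visual herbicidal ratings, taken three weeks after dosing, reflect post-emergence water-surface application to seedlings at one to two leaves. Conditions: co-sown weeds in alluvial soil flooded to 4 cm, greenhouse held at 25° C. to 30° C.; compound given as water-diluted emulsion at a fixed herbicide amount.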

Cyperus difformis = test: Test Example 3: herbicidal effect by foliage application, Wagner pot (symbol E); conditions: application herbicide amount 320 g/ha
In short: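 Herbicidal activity was rated three weeks after a foliar spray of diluted emulsion concentrate, applied at a predetermined dose to plants grown for 14 days from seed in waterlogged alluvial soil within a 25–30 °C greenhouse.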

[3] = tested on: Echinochloa crus-galli var. crus-galli; test: Test Example 5: herbicidal effect by foliage application, plastic box (symbol H); conditions: 320 g/ha, 3 weeks after application
In short: (§2)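 Herbicide, formulated as an emulsion and diluted in water, is sprayed onto the aerial parts of 14-day seedlings. These were grown at 25° C. to 30° C. in sterilized diluvial soil; effects are graded after 3 weeks.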

Monochoria vaginalis [4] = test: Test Example 1: herbicidal activity, application before weed generation in submerged conditions (symbol C); conditions: application herbicide amount 320 g/ha
In short: (§3)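 Application before weed emergence: an aqueous dilution of the emulsion formulation was poured onto the surface of 4 cm-deep floodwater on the day of sowing. Effect was judged after 3 weeks (greenhouse, 25–30 °C).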

rapeseed = test: Test Example 4: effect on crop by soil treatment (symbol g); conditions: application herbicide amount 320 g/ha
In short: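 Diluvial soil (sterilized) in boxes; seeds placed spot-wise alongside weed species; ~1.5 cm covering soil. Greenhouse, 25–30° C.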

[5] = tested on: directly sowed rice plant; test: Test Example 3: effect on crop by foliage application, Wagner pot (symbol b); conditions: application herbicide amount 320 g/ha
In short: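 Greenhouse culture at 25–30 °C of seeded rice, Cyperus difformis, Leptochloa chinensis and Echinochloa crus-galli var. crus-galli, in alluvial soil held under 0.1–0.5 cm of water in a Wagner pot.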

Alopecurus myosuroides = test: Test Example 5: herbicidal effect by foliage application, plastic box (symbol J); conditions: 320 g/ha, 3 weeks after application
In short: as §2

Digitaria ciliaris = test: Test Example 4: herbicidal effect by soil treatment (symbol F); conditions: application herbicide amount 320 g/ha
In short: as §1

Amaranthus retroflexus [6] = test: Test Example 5: herbicidal effect by foliage application, plastic box (symbol N); conditions: 320 g/ha, 3 weeks after application
In short: as §2

[7] = tested on: Echinochloa oryzacola Vasing.; test: Test Example 1: herbicidal activity, application before weed generation in submerged conditions (symbol A); conditions: application herbicide amount 320 g/ha
In short: as §3

Avena fatua = test: Test Example 5: herbicidal effect by foliage application, plastic box (symbol I); conditions: 320 g/ha, 3 weeks after application
In short: as §2

## CON=C(CC1CC(O)=C(c2c(C)cc(C)cc2C)C1=O)C(C)(C)C (centres unmarked) [1-059]
Apera spica-venti
  L (Apera spica-venti) herbicidal effect grade: 5 (Herbicidal ratio of 90% or more (almost completely withered))
Amaranthus retroflexus [1]
  N (Amaranthus retroflexus) herbicidal effect grade: 0 (Herbicidal ratio of 5% or lower (almost no effect))
Monochoria vaginalis [2]
  Herbicidal effect grade, C: Monochoria vaginalis: 0 (Herbicidal ratio of 5% or lower (almost no effect))
Cyperus difformis
  herbicidal effect on E, grade 0-5: 3 (Herbicidal ratio of 40% or higher and lower than 70%)
[3]
  H: Echinochloa crus-galli var. crus-galli, herbicidal effect grade: 4 (Herbicidal ratio of 70% or higher and lower than 90%)
Monochoria vaginalis [4]
  Herbicidal effect grade, C: Monochoria vaginalis: 2 (Herbicidal ratio of 20% or higher and lower than 40%)
rapeseed
  g (rapeseed) effect on crop grade: 0 (Herbicidal ratio of 5% or lower (almost no effect))
[5]
  effect on crop b (directly sowed rice plant), grade 0-5: 5 (Herbicidal ratio of 90% or more (almost completely withered))
Alopecurus myosuroides
  J: Alopecurus myosuroides, herbicidal effect grade: 4 (Herbicidal ratio of 70% or higher and lower than 90%)
Digitaria ciliaris
  F (Digitaria ciliaris) herbicidal effect grade: 4 (Herbicidal ratio of 70% or higher and lower than 90%)
Amaranthus retroflexus [6]
  N: Amaranthus retroflexus, herbicidal effect grade: 0 (Herbicidal ratio of 5% or lower (almost no effect))
[7]
  Herbicidal effect grade, A: Echinochloa oryzacola Vasing.: 5 (Herbicidal ratio of 90% or more (almost completely withered))
Avena fatua
  I: Avena fatua, herbicidal effect grade: 4 (Herbicidal ratio of 70% or higher and lower than 90%)

## CON=C(C)CC1CC(OC(=O)C(C)(C)Oc2cccc(Cl)c2)=C(c2c(C)cc(C)cc2C)C1=O (centres unmarked) [1-065]
Apera spica-venti
  L (Apera spica-venti) herbicidal effect grade: 5 (Herbicidal ratio of 90% or more (almost completely withered))
Amaranthus retroflexus [1]
  N (Amaranthus retroflexus) herbicidal effect grade: 5 (Herbicidal ratio of 90% or more (almost completely withered))
Monochoria vaginalis [2]
  Herbicidal effect grade, C: Monochoria vaginalis: 0 (Herbicidal ratio of 5% or lower (almost no effect))
Cyperus difformis
  herbicidal effect on E, grade 0-5: 5 (Herbicidal ratio of 90% or more (almost completely withered))
[3]
  H: Echinochloa crus-galli var. crus-galli, herbicidal effect grade: 5 (Herbicidal ratio of 90% or more (almost completely withered))
Monochoria vaginalis [4]
  Herbicidal effect grade, C: Monochoria vaginalis: 0 (Herbicidal ratio of 5% or lower (almost no effect))
rapeseed
  g (rapeseed) effect on crop grade: 4 (Herbicidal ratio of 70% or higher and lower than 90%)
[5]
  effect on crop b (directly sowed rice plant), grade 0-5: 5 (Herbicidal ratio of 90% or more (almost completely withered))
Alopecurus myosuroides
  J: Alopecurus myosuroides, herbicidal effect grade: 5 (Herbicidal ratio of 90% or more (almost completely withered))
Digitaria ciliaris
  F (Digitaria ciliaris) herbicidal effect grade: 5 (Herbicidal ratio of 90% or more (almost completely withered))
Amaranthus retroflexus [6]
  N: Amaranthus retroflexus, herbicidal effect grade: 2 (Herbicidal ratio of 20% or higher and lower than 40%)
[7]
  Herbicidal effect grade, A: Echinochloa oryzacola Vasing.: 5 (Herbicidal ratio of 90% or more (almost completely withered))
Avena fatua
  I: Avena fatua, herbicidal effect grade: 5 (Herbicidal ratio of 90% or more (almost completely withered))

Reference: patent publication US11000033B2, “Ketone or oxime compound, and herbicide” (NISSAN CHEMICAL CORPORATION, priority 2014, dated 2021)
